Source: patent publication US7429564B2, “Oral insulin therapy” (Emisphere Technologies, Inc., priority 2002, dated 2008)

Legend:
rhesus monkeys = conditions: rhesus monkey, in vivo, 14 days
Experimental: The present invention comprising compositions of insulin and the delivery agent 4-CNAB was evaluated for safety and toxicity in a nonclinical program that included pharmacological screening, pharmacokinetic profiling, and toxicity assessments in rats and monkeys.

plasma C-peptide = test: Example 6: plasma C-peptide during glucose clamp; type: in vivo, human; conditions: for C-peptide level, mean: 15 U SC
Experimental: During each study period, blood samples were collected for the determination of plasma insulin concentrations, plasma C-peptide and plasma glucose concentration. Sampling occurred from 6 hrs before dosing and continued for 6 hrs after the dose was administered. Blood samples were collected via a venous cannula. Blood samples were collected relative to the administration of the study drug (1) prior to study of drug administration at −1 and −0.5 hrs, (2) immediately after study drug administration (time 0), and (3) post administration of the study drug at 10, 20, 30, 40, 50 min, and 1, 1.25, 1.5, 1.75, 2, 2.5, 3, 3.5, 4, 5, and 6 hrs
Blood samples were collected from each patient during each treatment period for determination of plasma insulin concentrations, plasma C-peptide, and plasma glucose. Glucose infusion rates and blood glucose measurements were measured continuously during the glucose clamp procedure. All treatments were identical in their sample collection and monitoring periods for all visits. After a 6 hours pre-dose baseline period for stabilization of blood glucose concentrations at the desired clamp level, the clamp procedure after study drug administration lasted 6 hours.

For O=C(O)CCCNC(=O)c1ccc(Cl)cc1O [4-CNAB, 4-[(4-chloro, 2-hydroxybenzoyl)amino]butanoic acid], the “Highest proposed human dose (2000 mg) fold lower than NOAEL in monkeys” value (rhesus monkeys) was 12-16 fold.
For “SC insulin: human regular insulin injected subcutaneously (Humulin R or equivalent; Calbiochem insulin in the rat studies)”, the “Change in C-peptide during treatment periods” value (plasma C-peptide; 15 IU s.c., 300 IU oral and 150 IU oral) was “no significant changes”, the “C-peptide level, mean” value (plasma C-peptide; 10 minutes) was 1.05 nmol/L and the “C-peptide level, mean” value (plasma C-peptide; 20 minutes) was 1.07 nmol/L. The “C-peptide level, mean” value (plasma C-peptide; 30 minutes) was 1.09 nmol/L, the “C-peptide level, mean” value (plasma C-peptide; 40 minutes) was 1.11 nmol/L and the “C-peptide level, mean” value (plasma C-peptide; 50 minutes) was 1.05 nmol/L. The “C-peptide level, mean” value (plasma C-peptide; 60 minutes) was 1.04 nmol/L, the “C-peptide level, mean” value (plasma C-peptide; 75 minutes) was 1.07 nmol/L and the “C-peptide level, mean” value (plasma C-peptide; 90 minutes) was 1.03 nmol/L. For the same molecule, the “C-peptide level, mean” value (plasma C-peptide; 105 minutes) was 1.01 nmol/L, the “C-peptide level, mean” value (plasma C-peptide; 120 minutes) was 0.99 nmol/L and the “C-peptide level, mean” value (plasma C-peptide; 150 minutes) was 1.01 nmol/L. For the same molecule, the “C-peptide level, mean” value (plasma C-peptide; 180 minutes) was 0.99 nmol/L, the “C-peptide level, mean” value (plasma C-peptide; 210 minutes) was 0.97 nmol/L and the “C-peptide level, mean” value (plasma C-peptide; 240 minutes) was 0.94 nmol/L. For the same molecule, the “C-peptide level, mean” value (plasma C-peptide; 300 minutes) was 0.96 nmol/L, the “C-peptide level, mean” value (plasma C-peptide; 360 minutes) was 0.92 nmol/L and the “C-peptide level, mean” value (plasma C-peptide; Time 0) was 1.04 nmol/L. For the same molecule, the “C-peptide level, mean” value (plasma C-peptide; −30 minutes) was 1.05 nmol/L and the “C-peptide level, mean” value (plasma C-peptide; −60 minutes) was 1.02 nmol/L.
